How the values were obtained:
visna virus = assay: Plaque reduction assay, inhibition of visna virus in vitro; format: cell-based; parameters: key to Antiviral Activity: A: active compound; I: inactive compound; conditions: for Antiviral Activity: Table 1; for inhibition at 100 µM / inhibition at 1000 µM / inhibition at 1 µM / inhibition at 10 µM: Visna-maedi virus
Excerpt: Visna virus, a lentivirus genetically very similar to the AIDS virus, is pathogenic for sheep and goats. See Sonigo et al., Cell 42, 369-382 (1985); Haase, Nature 322, 130-136 (1986). Inhibition of visna virus replication in vitro as a useful model for human immunodeficiency virus (HIV) and its inhibition by test compounds has been described by Franket al., Antimicrobial Agents and Chemotherapy 31 (9), 1369-1374 (1987). The N-butyl derivative of 1,5-dideoxy-1,5-imino-D-glucitol, also referred to as n-butyl-deoxynojirimycin (N-Bu-DNJ), was used as a control standard for comparison with various novel compounds of this invention.
Various compounds as prepared above were tested for inhibition of visna virus in vitro in a plaque reduction assay as follows:
(§1) Sheep choroid plexus (SCP) cells were obtained from American Type Culture Collection (ATCC) catalogue number CRL 1700 and were routinely passaged in vitro in Dulbecco's Modified Eagles (DME) medium supplemented with 20% fetal bovine serum (FBS). SCP cells were passaged once per week at a 1:2 or 1:3 split ratio. Visna was titrated by plaque assay in six-well plates. Virus pools were stored at -70° C.
(§2) SCP cells were cultured in 6-well plates to confluence. Wells were washed two times with serum free Minimal Essential Medium (MEM) to remove FBS. 0.2 ml of virus was added per well in MEM supplemented with 4 mM glutamine and gentamycin. After 1 hour adsorption, the virus was aspirated from each well. The appropriate concentration of each compound in 5 ml of Medium 199 (M-199) supplemented With 2% lamb serum, 4 mM glutamine, 0.5% agarose and gentamycin was added to each well. Cultures were incubated at 37° C. in a humidified 5% CO2 incubator for 3-4 weeks. To terminate the test: cultures were fixed in 10% formalin, the agar removed, the monolayers stained with 1% crystal violet and plaques counted. Each compound concentration was run in triplicate. […] 0 is no toxicity observed while 4 is total lysing of the cell monolayer.

[1] = system: Sheep choroid plexus (SCP) cells; assay: Toxicity of compounds in control wells without virus, graded morphologically; format: cell-based
Protocol: as §1, §2

[2] = system: Sheep choroid plexus (SCP) cells; assay: as above; format: cell-based; parameters: key: 0: no toxicity; 4: total cell lysates; conditions: 0 to 4 scale, Table 1
Protocol: as §1, §2

HIV = conditions: cited from earlier work; for HIV inhibitory activity: disclosed in earlier patents/applications
[3] = system: Sheep choroid plexus (SCP) cells; assay: Toxicity of compounds in control wells without virus, graded morphologically; format: cell-based; parameters: key: 0: no toxicity observed; 4: total lysing of the cell monolayer; conditions: graded 0 to 4, Table 2
Protocol: as §1, §2

SMILES: CCCCN1C[C@H](OC(=O)c2ccccc2)[C@@H](OC(=O)c2ccccc2)[C@H](OC(=O)c2ccccc2)[C@H]1COC(=O)c1ccccc1 [Example 18, 1,5-(Butylimino)-1,5-dideoxy-D-glucitol, tetrabenzoate]
- Antiviral Activity (visna virus; 0.1 mM): A
- Antiviral Activity (visna virus; 1.0 mM): A
- Toxicity ([1]; 0.1 mM, 0 to 4 scale, Table 1): 1
- Toxicity ([2]; 1.0 mM): 0

SMILES: CCCCN1C[C@H](OC(C)=O)[C@@H](OC(C)=O)[C@@H]2O[C@H](c3ccccc3)OC[C@H]21 [Example 24, 1,5-(Butylimino)-1,5-dideoxy-4R,6-O-(phenylmethylene)-D-glucitol, diacetate]
- Antiviral Activity (visna virus; 1.0 mM): A
- Toxicity ([2]; 1.0 mM): 0

SMILES: CC(=O)OC[C@@H]1[C@@H](OC(C)=O)[C@H](OC(C)=O)[C@@H](OC(C)=O)CN1C(=O)c1ccccc1 [Example 5, 1,5-(Benzoylimino)-1,5-dideoxy-D-glucitol, tetraacetate]
- Antiviral Activity (visna virus; 0.1 mM): A
- Antiviral Activity (visna virus; 0.5 mM): A
- Antiviral Activity (visna virus; 1.0 mM): A
- Toxicity ([2]; 0.1 mM): 0
- Toxicity ([2]; 0.5 mM): 0
- Toxicity ([2]; 1.0 mM): 0

SMILES: Cc1cn([C@H]2C[C@H](N=[N+]=[N-])[C@@H](CO)O2)c(=O)[nH]c1=O [AZT, 3'-azido-3'-deoxythymidine]
- inhibition of virus replication in vitro (HIV; in vitro): inhibit replication of the virus in vitro

SMILES: CC(=O)OC[C@@H]1[C@@H](OC(C)=O)[C@H](OC(C)=O)[C@@H](OC(C)=O)CN1C(=O)Cc1ccccc1 [Example 4, 1,5-(Phenylacetylimino)-1,5-dideoxy-D-glucitol-tetraacetate]
- Antiviral Activity (visna virus; 0.5 mM): A
- Antiviral Activity (visna virus; 1.0 mM): A
- Toxicity ([2]; 0.5 mM): 0
- Toxicity ([2]; 1.0 mM): 0

SMILES: CCCCN1C[C@H](OC(C)=O)[C@@H](OC(C)=O)[C@H](O)[C@H]1CO [Example 28, 1,5-(Butylimino)-1,5-dideoxy-D-glucitol, 2,3-diacetate]
- inhibition at 100 µM (visna virus; 0.1 mM, Table 2): 44%
- inhibition at 1000 µM (visna virus; 1.0 mM, Table 2): 87%
- Toxicity ([1]; 0.1 mM, graded 0 to 4, Table 2): 2
- Toxicity ([3]; 1.0 mM): 4

SMILES: CC(=O)OC[C@@H]1[C@@H](OC(C)=O)[C@H](OC(C)=O)[C@@H](OC(C)=O)CN1C(=O)CCc1ccccc1 [Example 20, 1,5-(Hydrocinnamoylimino)-1,5-dideoxy-D-glucitol, tetraacetate]
- Antiviral Activity (visna virus; 0.01 mM): A
- Antiviral Activity (visna virus; 0.1 mM): A
- Antiviral Activity (visna virus; 1.0 mM): A
- Toxicity ([1]; 0.1 mM, 0 to 4 scale, Table 1): 1
- Toxicity ([1]; 1.0 mM, 0 to 4 scale, Table 1): 2
- Toxicity ([2]; 0.01 mM): 0

SMILES: CCCC(=O)OC[C@@H]1[C@@H](O)[C@H](OC(=O)CCC)[C@@H](OC(=O)CCC)CN1CCCCCC(F)(F)F [Example 66, 1,5-(6,6,6-Trifluorohexylimino)-1,5-dideoxy-D-glucitol, 2,3,6-tributyrate]
- inhibition at 1 µM (visna virus; 0.001 mM, Table 2): -3%
- inhibition at 10 µM (visna virus; 0.01 mM, Table 2): 38%
- inhibition at 100 µM (visna virus; 0.1 mM, Table 2): 88%
- inhibition at 1000 µM (visna virus; 1.0 mM, Table 2): 100%
- Toxicity ([1]; 0.1 mM, graded 0 to 4, Table 2): 1
- Toxicity ([1]; 1.0 mM, graded 0 to 4, Table 2): 2
- Toxicity ([3]; 0.001 mM): 0
- Toxicity ([3]; 0.01 mM): 0

SMILES: CCCC(=O)OC[C@H]1NC[C@H](OC(=O)CCC)[C@@H](OC(=O)CCC)[C@@H]1OC(=O)CCC [Example 42, 1,5-Dideoxy-1,5-imino-D-glucitol, tetrabutyrate]
- inhibition at 1 µM (visna virus; 0.001 mM, Table 2): 31%
- inhibition at 10 µM (visna virus; 0.01 mM, Table 2): 13%
- inhibition at 100 µM (visna virus; 0.1 mM, Table 2): 97%
- Toxicity ([1]; 0.01 mM, graded 0 to 4, Table 2): 1
- Toxicity ([1]; 0.1 mM, graded 0 to 4, Table 2): 2
- Toxicity ([3]; 0.001 mM): 0
- Toxicity ([3]; 1.0 mM): 4

SMILES: CC(C)C(=O)OC[C@@H]1[C@@H](OC(=O)C(C)C)[C@H](OC(=O)C(C)C)[C@@H](OC(=O)C(C)C)CN1C(=O)Cc1ccccc1 [Example 39, 1,5-(Phenylacetylimino)-1,5-dideoxy-D-glucitol, tetraisobutyrate]
- inhibition at 10 µM (visna virus; 0.01 mM, Table 2): 19%
- inhibition at 100 µM (visna virus; 0.1 mM, Table 2): 56%
- inhibition at 1000 µM (visna virus; 1.0 mM, Table 2): 95%
- Toxicity ([1]; 0.1 mM, graded 0 to 4, Table 2): 1
- Toxicity ([1]; 1.0 mM, graded 0 to 4, Table 2): 3
- Toxicity ([3]; 0.01 mM): 0

SMILES: CCCCN1C[C@H](OC(=O)CC)[C@@H](OC(=O)CC)[C@H](OC(=O)CC)[C@H]1COC(=O)CC [Example 17, 1,5-(Butylimino)-1,5-dideoxy-D-glucitol, tetrapropionate]
- Antiviral Activity (visna virus; 0.01 mM): A
- Antiviral Activity (visna virus; 0.1 mM): Toxic
- Toxicity ([1]; 0.01 mM, 0 to 4 scale, Table 1): 2
- Toxicity ([2]; 0.1 mM): 4

SMILES: CCCCN1C[C@H](OC(=O)C(C)(C)C)[C@@H](O)[C@H](OC(=O)C(C)(C)C)[C@H]1COC(=O)C(C)(C)C [Example 50B]
- inhibition at 1 µM (visna virus; 0.001 mM, Table 2): 17%
- inhibition at 10 µM (visna virus; 0.01 mM, Table 2): 33%
- inhibition at 100 µM (visna virus; 0.1 mM, Table 2): 75%
- inhibition at 1000 µM (visna virus; 1.0 mM, Table 2): 76%
- Toxicity ([1]; 0.1 mM, graded 0 to 4, Table 2): 1
- Toxicity ([1]; 1.0 mM, graded 0 to 4, Table 2): 2
- Toxicity ([3]; 0.001 mM): 0
- Toxicity ([3]; 0.01 mM): 0

SMILES: CCCCN1C[C@H](OC(=O)C(C)C)[C@@H](OC(=O)C(C)C)[C@H](OC(=O)C(C)C)[C@H]1COC(=O)C(C)C [Example 22, 1,5-(Butylimino)-1,5-dideoxy-D-glucitol, tetraisobutyrate]
- Antiviral Activity (visna virus; 0.01 mM): A
- Antiviral Activity (visna virus; 0.1 mM): A
- Antiviral Activity (visna virus; 1.0 mM): A
- Toxicity ([2]; 0.01 mM): 0
- Toxicity ([2]; 0.1 mM): 0
- Toxicity ([2]; 1.0 mM): 0

SMILES: CCCCN1C[C@H](OC(C)=O)[C@@H](OC(C)=O)[C@H](OC(C)=O)[C@H]1COC(C)=O [Example 7, 1,5-(Butylimino)-1,5-dideoxy-D-glucitol, tetraacetate]
- Antiviral Activity (visna virus; 0.1 mM): A
- Antiviral Activity (visna virus; 0.5 mM): A
- Antiviral Activity (visna virus; 1.0 mM): A
- Toxicity ([2]; 0.1 mM): 0
- Toxicity ([2]; 0.5 mM): 0
- Toxicity ([2]; 1.0 mM): 0

SMILES: CN1C[C@H](O)[C@@H](O)[C@H](O)[C@H]1CO [Example 9, 1,5-(Methylimino)-1,5-dideoxy-D-glucitol]
- HIV inhibitory activity (HIV): HIV inhibitory activity

SMILES: CCCCCCCCCN1C[C@H](OC(C)=O)[C@@H](OC(C)=O)[C@H](OC(C)=O)[C@H]1COC(C)=O [Example 14, 1,5-(Nonylimino)-1,5-dideoxy-D-glucitol, tetraacetate]
- Antiviral Activity (visna virus; 0.001 mM): A
- Antiviral Activity (visna virus; 0.01 mM): A
- Antiviral Activity (visna virus; 0.1 mM): A
- Antiviral Activity (visna virus; 1.0 mM): Toxic
- Toxicity ([1]; 0.1 mM, 0 to 4 scale, Table 1): 2
- Toxicity ([2]; 0.001 mM): 0
- Toxicity ([2]; 0.01 mM): 0
- Toxicity ([2]; 1.0 mM): 4

SMILES: CC(=O)OC[C@@H]1[C@@H](OC(C)=O)[C@H](OC(C)=O)[C@@H](OC(C)=O)CN1CCCC(F)(F)F [Example 63, 1,5-(4,4,4-Trifluorobutylimino)-1,5-dideoxy-D-glucitol, tetraacetate]
- inhibition at 100 µM (visna virus; 0.1 mM, Table 2): 2%
- inhibition at 1000 µM (visna virus; 1.0 mM, Table 2): 90%
- Toxicity ([1]; 1.0 mM, graded 0 to 4, Table 2): 2
- Toxicity ([3]; 0.1 mM): 0

SMILES: CC(=O)OC[C@H]1NC[C@H](OC(C)=O)[C@@H](OC(C)=O)[C@@H]1OC(C)=O [Example 3, 1,5-Dideoxy-1,5-imino-D-glucitol, tetraacetate]
- Antiviral Activity (visna virus; 0.5 mM): A
- Antiviral Activity (visna virus; 1.0 mM): A
- Toxicity ([2]; 0.5 mM): 0
- Toxicity ([2]; 1.0 mM): 0

SMILES: CCOC(=O)CC(=O)N1C[C@H](OC(C)=O)[C@@H](OC(C)=O)[C@H](OC(C)=O)[C@H]1COC(C)=O [Example 8, 1,5-(Ethylmalonylimino)-1,5-dideoxy-D-glucitol, tetraacetate]
- Antiviral Activity (visna virus; 0.1 mM): A
- Antiviral Activity (visna virus; 1.0 mM): A
- Toxicity ([2]; 0.1 mM): 0
- Toxicity ([2]; 1.0 mM): 0

SMILES: OC[C@H]1NC[C@H](O)[C@@H](O)[C@@H]1O [deoxynojirimycin, 1,5-dideoxy-1,5-imino-D-glucitol]
- HIV inhibitory activity (HIV): HIV inhibitory activity

SMILES: CCCCN1C[C@H](OC(=O)C(C)(C)C)[C@@H](OC(=O)C(C)(C)C)[C@H](OC(=O)C(C)(C)C)[C@H]1COC(=O)C(C)(C)C [Example 50A]
- % Plaque Reduction (visna virus; 1.0 mM, Table 2): Toxic
- inhibition at 10 µM (visna virus; 0.01 mM, Table 2): 20%
- inhibition at 100 µM (visna virus; 0.1 mM, Table 2): 49%
- Toxicity ([1]; 0.1 mM, graded 0 to 4, Table 2): 1
- Toxicity ([3]; 0.01 mM): 0
- Toxicity ([3]; 1.0 mM): 4
